Several values for one entry are separate records, joined by “and”; a condition that tells them apart may be missing. Equal entries are not always repeated. Each block holds one compound with its values, some of them ahead of it.
Assays:
peripheral blood [1] = tested on: peripheral blood; design: species or system mice; conditions: mouse, in vivo
Experimental: An eight week evaluation of the potential for oral Procysteine® to modulate AZT-induced hematologic toxicity in mice was conducted. As noted above, AZT-related bone marrow toxicity, and resultant bone marrow hypoplasia, limits the utility of this drug.
(§1) Animals were weighed (not fasted) on study day 59 and euthanized, and specimens were collected as described.
On study day 59, surviving mice were deeply anesthetized with methoxyflurane in a bell jar. While the mice were deeply anesthetized, blood for hematological analysis was obtained via cardiac puncture using needles/syringes coated with K3 EDTA. While deeply anesthetized, the mice were then euthanized by exsanguination followed by cervical dislocation. Then, bone marrow smears and aspirates were prepared and liver and kidneys were collected as subsequently described in this report.
The following hematology assays were conducted:
Statistical tests were performed at α≈0.01. Listings of the individual data were provided. Summary statistics by sex (mean, standard error and sample size) were provided for the responses for each group and for the differences between groups 1 and 2, between groups 3 and 5 and between groups 4 and 6. The average across weekly intervals for body weight change from study day 3 was analyzed. The average across weekly intervals for food consumption starting with the interval between days 3-4 were analyzed. The model included factors for block, sex and group effects and the group by sex interaction. the interactions with block effect were assumed negligible. Data for both sexes were included in one model to get an overall estimate of the residual standard deviation used in the statistical comparisons.
(§2) The difference between the means for groups 3 and 5 and the difference between the means for groups 4 and 6 were compared to the control delta. The significance of the two individual comparisons is designated in the summary statistics listing. Pairwise comparisons of the mean response for group 2 to group 1, group 3 to group 1, group 4 to group 1, group 5 to group 2, and group 6 to group 2 were also performed. The significance of these five comparisons was designated in the summary statistics listing. In total, the significance of seven statistical comparisons (two on the mean differences and five on the mean responses) are indicated in the summary statistics listing.

[2] = Histopathology of adrenal, skin and tail, Example 2; design: species or system mice; conditions: mouse, in vivo
[3] = tested on: bone marrow colony forming cells; experiment: Hematopoietic progenitor colony forming assay of bone marrow, Example 1; design: species or system mice; conditions: mouse, in vivo
Experimental: (§3) Populations of bone marrow colony forming cells were evaluated. Bone marrow was collected and the stem cell assay conducted, as follows: one femur per mouse was cut at the distal and proximal ends. Using a syringe and 25 gauge needle, 5 mL of IMDM media was flushed through the femur into a collection tube (2.5 mL flushed into one end, then 2.5 ml into the other end). The tube was washed using Iscove's Modified Dulbecco's Media containing 20% fetal bovine serum and the cell concentration was adjusted to the desired count for the colony assay.
In triplicate, the marrow cells were put into a mixture of methylcellulose and plated into 35 mm diameter dishes. The dishes were incubated approximately 2 weeks (37° C., 5% CO2, 100% relative humidity) then manually scored under a microscope for myeloid, erythroid, and mixed colonies.
(§4) Terminal blood was evaluated for hematological effects, and bone marrow smears and aspirates were counted and 10^4 nucleated cells of the aspirate were cultured 14 days to assess hematopoietic progenitor cells.

femoral bone marrow = experiment: Histopathology of femoral bone marrow sections, Example 2; assay type: in vivo, mice
Experimental: as §1
(§5) One femur from each mouse was removed and transversely halved. One half was preserved in 10% neutral buffered formalin, then submitted to a histology department for further preparation. The other half of the femur was used to prepare bone marrow smears. […] Prepared slides for bone sections and bone marrow smears were stained (Diff-Quik®) and the smears and sections were evaluated microscopically.

peripheral blood [4] = tested on: peripheral blood; design: species or system mice; conditions: mouse, in vivo; remark: listed apart in the source
Experimental: On study day 17, the animals were anesthetized with methoxyflurane (in a bell jar). When deeply anesthetized, blood was obtained by cardiac puncture and transferred for hematological analysis into tubes containing an EDTA suspension.
The following hematologic assays were conducted.
(§6) Statistical tests were performed at the α level of 0.01. Listing of the individual data and summary statistics (mean, standard error and sample size) was provided. The average body weight changes from study day 3 for study days 4-10 and 11-17 and average food consumption for study days 4-10 and 11-17 was analyzed.

bone marrow [5] = experiment: Bone marrow smear differential and M:E ratio, Example 2; assay type: in vivo, mice
Experimental: as §5, §2
(§7) Statistical analysis of bone marrow data included an analysis of the results from bone marrow smears (differential count and M:E ratio), analysis of the histopathologic characterization data for bone marrow cellularity, analysis of the bone marrow cellularity on the day of necropsy, analysis of the results of the hematopoietic colony forming assays (based on 10^4 mononuclear bone marrow (cells/dish), and analysis of the number of colony forming units represented per femur (cellularity data multiplied by colony forming data).

bone marrow [6] = experiment: Nucleated cells per femur (bone marrow cells before plating), Example 1; assay type: in vivo, mice; conditions: for Nucleated Cells/Femur: M,F,combined in turn
Experimental: as §3, §4

bone marrow [7] = experiment: Nucleated cells/femur and colony forming cells, Example 2; assay type: in vivo, mice
Experimental: Bone marrow colony-forming cells were evaluated. During necropsy, one femur per mouse was cut at the distal and proximal ends. Using a syringe and 25 G needle, 5 ml of Iscove's Modified Dulbecco's Media (IMDM) was flushed through the femur into a collection tube (2.5 ml flushed into one end, then 2.5 ml into the other end). The tube was washed using IMDM containing 20% fetal bovine serum and the cell concentration was adjusted to the desired count for the colony assay. In triplicate, the marrow cells were put into a mixture of methylcellulose, stem cell factor, interleukin-3, granulocyte macrophage--colony stimulating factor, and erythropoietin, and plated into 35 mm diameter dishes. The dishes were incubated 10 days (37° C., 5% CO2, 100% relative humidity) then manually scored under a light microscope for myeloid (white), erythroid (red), and mixed colonies.
as §7

[8] = GSH concentrations in blood, liver and kidney by HPLC, Example 2; assay type: in vivo, mice
bone marrow [9] = experiment: Bone marrow smear differential, cells/femur and myeloid:erythroid ratio, Example 1; assay type: in vivo, mice
Experimental: Prepared slides were stained and evaluated microscopically.
as §6, with “analyzed. […] Specifically, the interaction of AZT and procysteine® was evaluated.” for “analyzed.”
Microscopic analysis of the bone marrow smears was conducted by evaluating 500 cells for the differential analysis and 500 cells for the myeloid: erythroid ratio.

[10] = 8 weeks, AZT 50/day, F, M in turn
[11] = 8 weeks, AZT 500/day, F, M in turn
[12] = AZT 50 mg/kg/day, M,F,combined in turn
[13] = AZT 500 mg/kg/day, M,F,combined in turn
[14] = 8 weeks, no AZT, F (N 9), M (N 10) in turn

Structure (SMILES): Cc1cn([C@H]2C[C@H](N=[N+]=[N-])[C@@H](CO)O2)c(=O)[nH]c1=O [AZT]
HCT (peripheral blood [1]): significant decrease
MCV and MCH (peripheral blood [1]): Significant increases
RBC and HGB (peripheral blood [1]): Significant decreases
platelets (peripheral blood [1]): significant increases
epidermal melanin-like pigment of tail [2]: accumulation of epidermal melanin-like pigment
total colonies and colony forming units-granulocyte/macrophage [3]: significant induction
Bizarre Mitotic Figures (number of mice) (femoral bone marrow; [10]): 0
Erythroid Hypoplasia (number of mice) (femoral bone marrow; [10]): 10 and 6
General Hypoplasia (number of mice) (femoral bone marrow; [10]): 1
Hemosiderin (number of mice) (femoral bone marrow; [10]): 0
Erythroid Hypoplasia (number of mice) (femoral bone marrow; [11]): 9 and 8
Hemosiderin (number of mice) (femoral bone marrow; [11]): 4 and 2
erythroid or general bone-marrow-hypoplasia (femoral bone marrow; both doses, both sexes): 36/39
erythroid hypoplasia (femoral bone marrow; female mice): 19/20
erythroid hypoplasia (femoral bone marrow; male mice): 14/19
mean corpuscular volume, mean corpuscular hemoglobin, incidence of polychromasia, anisocytosis, macrocytes and Howell-Jolly bodies (peripheral blood [4]): increases
total hemoglobin concentration, hematocrit and erythrocyte counts (peripheral blood [4]): significant (p<0.01) decreases
erythroid cells in bone marrow smears (bone marrow [5]; male and female): significant reduction
metarubricytes (nonproliferating) and rubriblasts (bone marrow [5]; male and female): significantly reduced
total proliferating myeloid and total myeloid cells (bone marrow [5]; male and female): significantly increased
Nucleated Cells/Femur (bone marrow [6]; AZT 50 mg/kg/day): 11.7 ×10**6 and 9.9 ×10**6 and 10.8 ×10**6
Nucleated Cells/Femur (bone marrow [6]; AZT 500 mg/kg/day): 10.5 ×10**6 and 8.8 ×10**6 and 9.6 ×10**6
nucleated cells of bone marrow aspirates (bone marrow [6]; AZT and high-dose AZT/Procysteine, vs controls): significant reduction
total number of colonies (bone marrow [7]; both high dose AZT groups): significant increases
Nucleated Cells/Femur (bone marrow [7]; males and females, high dose AZT ± Procysteine, vs controls): significantly decreased
Blood GSH ([8]; mouse, in vivo): significantly decreased with increasing AZT dose
Bone Marrow-Miscellaneous Cells % (bone marrow [9]; [12]): 0.4% and 0.5%
Lymphocyte (bone marrow [9]; [12]): 0.047 /Femur × 10**6 and 0.046 /Femur × 10**6
Bone Marrow-Miscellaneous Cells % (bone marrow [9]; [13]): 0.2%
Lymphocyte (bone marrow [9]; [13]): 0.022 /Femur × 10**6 and 0.015 /Femur × 10**6 and 0.019 /Femur × 10**6
metarubricytes (nonproliferating) (bone marrow [9]; bone marrow smears): marked reduction
rubriblasts (bone marrow [9]; bone marrow smears): mild reduction
total count of erythroid series cells (bone marrow [9]; bone marrow smears): reduced total count
nonproliferating compartment of the myeloid series (bone marrow [9]; mouse, in vivo): reduction
proliferating compartment of the myeloid series (bone marrow [9]; mouse, in vivo): significantly increased

HCT (peripheral blood [1]): 39.6%
MCV (peripheral blood [1]): 51 fL
Retic (peripheral blood [1]): 1.4%
WBC (peripheral blood [1]): 2.1 10^3 /μl
Structure (SMILES): O=C1N[C@H](C(=O)O)CS1 [Procysteine]
Bizarre Mitotic Figures (number of mice) (femoral bone marrow; [14]): 0
Erythroid Hypoplasia (number of mice) (femoral bone marrow; [14]): 0
General Hypoplasia (number of mice) (femoral bone marrow; [14]): 0
Hemosiderin (number of mice) (femoral bone marrow; [14]): 0
Normal bone marrow (number of mice) (femoral bone marrow; [14]): 9 and 10
AZT-induced bone marrow pathology / hypoplasia (femoral bone marrow; eight weeks of cotreatment): significantly ameliorated
erythroid series cells (bone marrow [5]; female mice): only a mild decrease
myeloid series cells (bone marrow [5]; female mice): no meaningful alterations
bone marrow status (bone marrow [5]; male mice): normal bone marrows
Nucleated Cells/Femur (bone marrow [6]; no AZT): 12.8 ×10**6 and 12.0 ×10**6 and 12.4 ×10**6
blood GSH concentrations vs AZT-only treated groups ([8]; at 0, 50, and 500 mg/kg/day AZT): higher
Bone Marrow-Miscellaneous Cells % (bone marrow [9]; no AZT, M,F,combined in turn): 1.0% and 1.2% and 1.1%
Lymphocyte (bone marrow [9]; no AZT, M,F,combined in turn): 0.130 /Femur × 10**6 and 0.141 /Femur × 10**6 and 0.135 /Femur × 10**6
Myeloid:Erythroid Ratio (bone marrow [9]; no AZT, M,F,combined in turn): 1.59 and 1.58
